Data on 14 compounds can be found in US20160220689A1, “MACROMOLECULES OF DENDRIMER-PLATINUM CONJUGATES” (priority 2013, published 2016).

For series [1], the system named is SW620 (colon). Put plainly: Sulforhodamine B (SRB) cell growth inhibition assay. Particulars: 72 hours, based on equivalent platinum loading, standard drugs on total molecular weight. The protocol: (§1) Cell growth inhibition was determined using the Sulforhodamine B (SRB) assay (Voigt W., “Sulforhodamine B assay and chemosensitivity” Methods Mol. Med., 2005, 110, 39-48) against various cancer cell lines after 72 hours.
(§2) All solutions were prepared in saline and were stored at −20° C. All values were based on equivalent platinum loading except standard drugs which were calculated on total molecular weight. The results are shown in Table 1 in the micromolar range.

Series [2] relates to FADU (head and neck). The description is as above. Particulars: 72 hours, based on equivalent platinum loading, standard drugs on total molecular weight. The protocol:
as §1, §2

Series [3] concerns 2008 (ovarian). Described as above. Particulars: 72 hours, based on equivalent platinum loading, standard drugs on total molecular weight. The protocol:
as §1, §2

Series [4] deals with OE21 (head and neck). The series is described as above. Particulars: 72 hours, based on equivalent platinum loading, standard drugs on total molecular weight. The protocol: as §1, §2
The subject of series [5] is LoVo (colon). The series is described as above. Particulars: 72 hours, based on equivalent platinum loading, standard drugs on total molecular weight. The protocol: as §1, §2
The conditions of series [6]: cited from earlier work.
The subject of series [7] is SW620 cells. Kind of series: Xenograft model efficacy study. Particulars: IV days 1, 8, 15, Oxaliplatin 5, Compound 1 8.5, Compound 5 9 mg/kg Pt equivalents.
Experimental: Thirteen days later, 50 mice with similar sized tumors (˜110 mm^3) were randomized into 4 groups (n=12). All compounds were dissolved in 5% glucose at the concentration required to achieve administration of 0.1 mL/10 g body eight.
Series [8] in a line: Maximum tolerated dosage in mice. Particulars: intravenous, once weekly for three weeks (day 1, 8 and 15), female Balb/c mice. The source says: Mice were weighed daily and watched for signs of toxicity. Animals were monitored for up to 10 days following the final drug dose. Any mice exceeding ethical endpoints (>20% body weight loss, poor general health) were immediately sacrificed and observations were noted.

The nature of series [9]: Toxicity study: blood cell counts in tumor-bearing mice. Particulars: Oxaliplatin 5, Compound 1 8.5, Compound 5 9 mg/kg Pt equivalents IV days 1, 8, 15. The protocol: The mice were randomised into 4 groups of n=5 mice, (mean tumor volume ˜90 mm^3) On day one, animals were eye bled in the morning for baseline cell counts and then drug dosing commenced later that day. Drug dosing was performed on days 1, 8 and 15 at the previously determined maximum tolerated doses. All compounds were dissolved in 5% glucose at the concentration required to allow administration of 0.1 mL/10 g body weight. […] Subsequent eye bleeds were performed on days 7, 14 and 26 (Tables 4 A-D, in each case data represented as mean ratio of counts for each time point relative to that at the baseline).

Regarding `N.N.O=C([O-])C1(C(=O)[O-])CCC1.[Pt+2]` [Carboplatin, carboplatin, reference compound], the GI50 in series [1] was determined as 33.5 µM; in series [2], 20 µM; in [3] it was 4.9 µM; in series [4], 3.6 µM; in series [5], 23 µM. Besides, in series [6] (patients receiving the drug), the “patients developing peripheral neurotoxicity” value is reported as 4-6%.
In the case of `N.N.[Cl][Pt][Cl]` [Cisplatin, cisplatin, reference compound], the GI50 in series [1] turned out to be 3.6 µM; in [2] it was 2 µM; in series [3] it was 0.5 µM; in [4], 0.4 µM; in series [5], 2.8 µM. Moreover, the “patients with tinnitus and hearing loss” value in series [6] (patients treated with the drug) is “up to 31%”.
Turning to “BHALys[Lys]32[α-Succ-Gly-Gly-Gly-amino malonic acid-N,O—Pt-1R,2R-(DACH)]32[ε-PEG1100]32 [Compound 4]”, the concentration for 50% growth inhibition (GI50) in series [1] is 6.7 µM; in [2] it was 9.5 µM; in series [3] it was 6.4 µM; in [4] it was 7.4 µM; in [5], 13 µM.
For the compound “BHALys[Lys]32[α-Succ-Gly-Gly-Gly-amino malonic acid-O,N—Pt-diammine]32[ε-PEG2200]32 [Compound 3]”, the GI50 was more than 300 µM in series [1], more than 300 µM in [2], 69 µM in [3] and more than 300 µM in series [5].
With “BHALys[Lys]32[α-Succ-Gly-Gly-Gly-amino malonic acid-O,O′—Pt-diammine]32[ε-PEG2200]32 [Compound 2]”, the GI50 in series [1] was more than 300 µM; in [2] it was 200 µM; in series [3], 41 µM; in series [4] it was more than 30 µM; in series [5] it was 170 µM.
On to “BHALys[Lys]32[α-Succ-Gly-Gly-Gly-amino malonic acid-Pt-1R,2R-(DACH)]32[ε-PEG2200]32 [Compound 1]”, for which the GI50 in series [1] amounted to 3.5 µM; in series [2] it was 9 µM; in series [3] it was 4.5 µM; in series [5] it was 7.5 µM. Further, the “Mean Tumor Volume” value turned out to be 100.47 mm^3 in [7] (Day 1), 184.55 mm^3 in [7] (Day 7), 283.02 mm^3 in [7] (Day 14) and 316.90 mm^3 in series [7] (Day 21).
Turning to “BHALys[Lys]32[α-Succ-Gly-Leu-Phe-Gly-amino malonic acid-N,O—Pt-1R,2R-(DACH)]32[ε-PEG1100]32 [Compound 6]”, the GI50 was determined as 4.2 µM in series [1]; 12 µM in [2]; 3.9 µM in series [3]; 14.5 µM in series [4]; 8.1 µM in series [5].
Turning to “BHALys[Lys]32[α-Succ-Gly-Leu-Phe-Gly-amino malonic acid-N,O—Pt-diammine]32[ε-PEG1100]32 [Compound 7]”, the GI50 is 170 µM in [1]; 150 µM in series [2]; 36 µM in [3]; more than 30 µM in series [4]; 220 µM in series [5].
On to “BHALys[Lys]32[α-Succ-Gly-Leu-Phe-Gly-amino malonic acid-Pt-1R,2R-(DACH)]32[ε-PEG2200]32 [Compound 5]”, for which the GI50 was 1.5 µM in series [1], 3 µM in series [2], 2.5 µM in series [3] and 3 µM in series [5]. The “Mean Tumor Volume” value in series [7] (Day 1) worked out at 100.96 mm^3; in series [7] (Day 7), 196.01 mm^3; in [7] (Day 14), 303.00 mm^3; in [7] (Day 21), 363.01 mm^3.
In the case of “BHALys[Lys]32[α-Succ-Pro-Val-Gly-Leu-Ile-Gly-amino malonic acid N,O—Pt-diamine]32[ε-PEG1100]32 [Compound 8]”, the GI50 in [1] worked out at 63 µM; in series [2], 71 µM; in [3] it was 18 µM; in [4], 26.5 µM; in series [5] it was 72 µM.
Consider “BHALys[Lys]32[α-diglycolic acid-5R-oxy-(1R,2R)-diaminocyclohexane-oxalato-Platinum (II)]32[ε-PEG2200]32 [Compound 13]”, for which, in series [8], the “Tolerated Dose” value was more than 35 mg/Kg Pt equivalents.
For the compound “BHALys[Lys]32[α-diglycolic acid-5S-oxy-(1R,2R)-diaminocyclohexane-oxalato-Platinum (II)]32[ε-PEG2200]32 [Compound 14]”, the “Tolerated Dose” value in [8] is on record as more than 35 mg/Kg Pt equivalents.
With “BHALys[Lys]32[α-thiodiglycolic acid-4-oxy-1,1-cyclohexane dicarboxylic acid —Pt-1R,2R-(DACH)]32[ε-PEG2200]32 [Compound 12]”, the GI50 in [1] worked out at 2.5 µM; in series [2], 8.5 µM; in series [3], 6 µM; in [5], 5 µM. Moreover, the “Tolerated Dose” value in series [8] was more than 60 mg/Kg Pt equivalents.
oxaliplatin [reference compound]: the GI50 in [1] was 0.2 µM; in series [2], 0.9 µM; in series [3] it was 0.2 µM; in series [4], 1 µM; in [5] it was 0.5 µM. The “Mean lymphocytes counts (baseline corrected) (SEM)” value in [9] (Day 1 (baseline)) was 1.000 (0.125); in [9] (Day 7) it was 0.240 (0.130); in series [9] (Day 14), 0.302 (0.066); in series [9] (Day 26) it was 0.380 (0.154). The “Mean Tumor Volume” value in series [7] (Day 1) came to 100.56 mm^3; in [7] (Day 7), 203.06 mm^3; in [7] (Day 14) it was 340.50 mm^3; in [7] (Day 21), 501.57 mm^3.

A word on the GI50: it is the concentration that inhibits growth by half.
